This is an account of results in paper PMC4449006, “Targeting KRAS Oncogene in Colon Cancer Cells with 7-Carboxylate Indolo[3,2-b]quinoline Tri-Alkylamine Derivatives” (PLoS ONE, 2015).

Structures can show the parent of a compound that is named as a salt.

The subject of series [1] is T-Loop duplex DNA. Kind of series: FRET melting assay, duplex DNA. The series is classed as binding. The following applies: standard deviation < 0.2°C; for ΔTm (°C) T-Loop 1 μM: 1 μM compound; for ΔTm (°C) T-Loop 2 μM: 2 μM compound. On the procedure: (§1) The capacity of compounds 1a-d, 2a-d and the standard G4 ligand TMPyP4 (Fig 1) to bind and stabilize KRAS [26] and HSP90A [27] G4 DNA structures as well as duplex DNA (T-loop) was evaluated by a Fluorescence Resonance Energy Transfer (FRET) melting assay. […] It was observed that the basicity of side chains correlates positively with thermal G4 stabilization of all DNA sequences up to an optimal pKa ~ 8.0–9.0 (Fig 2). Heterocyclic amines at the end of alkyl side chain (1b and 2b) appear to improve binding to G4s and complex stabilization compared to the di-ethylamine group (1a and 2a), which cannot be explained by differences in basicity between terminal groups. […] However, this was not observed for the isomeric pair 1a / 2a.
(§2) All oligonucleotides were purchased from Eurofins MWG Synthesis GmbH, Germany. The labeled oligonucleotides used in the FRET assays had attached the donor fluorophore FAM (6-carboxyfluorescein) and the acceptor fluorophore TAMRA (6-carboxytetramethylrhodamine): KRAS21R (5’-FAM-[…]-TAMRA-3’); HSP90A (5’- [FAM]-[…]-[TAMRA]-3’); T-Loop (5’-FAM-[…]-TAMRA-3’). Each oligonucleotide was initially diluted to a storage solution at 100 μM in nuclease free water (not DEPC-treated), purchased from Ambion Applied Biosystems UK.
(§3) The ability of IQ3A and TMPyP4 to stabilize G-quadruplex and duplex DNA sequences was investigated using a Fluorescence Resonance Energy Transfer (FRET) assay. Stock solution of the oligonucleotides sequences at 20 μM and subsequent dilutions were obtained from storage solutions diluting with K-cacodylate buffer pH = 7.4, containing 60 mM K^+ (10 mM potassium cacodylate, 50 mM KCl). The FRET probe sequences were diluted from stock to the correct concentration (0.4 μM) and then annealed by heating to 95°C for 10 min, followed by cooling to RT. Test compounds were prepared as 1 mM in 10% DMSO and 10% 1mM HCl in HPLC-grade water. The rest of the dilutions were performed using FRET buffer. Annealed DNA (50 μL) and compound solution (50 μL) were distributed across 96-well RT-PCR plates (BioRad; MJ Research, Waltham, MA, USA). Relevant controls were also performed to check for interference with the assay. Fluorescence readings were made on a DNA Engine Opticon (MJ Research) with excitation at 450–495 nm and detection at 515–545 nm, taken at intervals of 0.5°C in the range 30–100°C, with a constant temperature being maintained for 30 s prior to each reading to ensure a stable value. Experiments were performed in triplicate. Final analysis of the data was carried out with GraphPad Prism 5.0 software (GraphPad Software, Inc). The advanced curve-fitting function in GraphPad Prism was used for calculation of ΔT m values and associated standard deviations.

The test system of series [2] is HSP90A G-quadruplex DNA. Kind of series: FRET melting assay, HSP90A G-quadruplex DNA. The series is classed as binding. The settings on record: standard deviation < 0.2°C; for ΔTm (°C) HSP90A 1 μM: 1 μM compound; for ΔTm (°C) HSP90A 2 μM: 2 μM compound. As to the method:
as §1, §2, §3

For series [3], the system named is KRAS21 G-quadruplex DNA. Kind of series: FRET melting assay, KRAS G-quadruplex DNA. The series is classed as binding. The settings on record: standard deviation < 0.2°C; for ΔTm (°C) KRAS21 1 μM: 1 μM compound; for ΔTm (°C) KRAS21 2 μM: 2 μM compound. As to the method: as §1, §2, §3
The subject of series [4] is HEK293T cells. Kind of series: MTS short-term cytotoxicity assay (72 h), HEK293T. The settings on record: MTS; for IC50: Homo sapiens, HEK-293T, standard errors ≤ 0.1, read-out: HEK293T IC50; for HEK293T IC65: standard errors ≤ 0.1. The series is classed as cell-based, human. On the procedure:
(§4) The short-term effect of compounds at 72 h on cell growth was studied using colorectal carcinoma cell lines with different KRAS and TP53 genotypes: human colorectal carcinoma HCT116 (mut Kras, wild-type (wt) p53), and human metastatic colorectal adenocarcinoma SW620 (mut Kras, mut p53). In parallel, we also used the immortalized human embryonic kidney cell line HEK293T (wt Kras, wt p53) and normal human colon fibroblast cells CCD18co (wt Kras, wt p53).
(§5) SW620 human colorectal adenocarcinoma cells (European Collection of Cell Cultures, ECACC, Porton Down, Wiltshire, UK), HEK293T human embryonic kidney cells (ATCC, LGC Standards, UK) HCT116 human colon carcinoma cells (ECACC), HCT116 p53(+/+) and p53(−/−) isogenic human colon cancer cells (GRCF Cell Center and Biorepository, the Johns Hopkins University, School of Medicine, Baltimore, MD, USA), were grown in Dulbecco’s modified Eagle’s medium (DMEM) supplemented with 10% fetal bovine serum, and 1% antibiotic/antimycotic (Invitrogen, Grand Island, NY, USA), CCD18co human colon fibroblasts (ATCC, CRL-1459) were grown in Minimum Essential Medium (MEM) supplemented with 10% fetal bovine serum, 1% antibiotic/antimycotic, 2 mM GlutaMAX, 0,1 mM Non-essential amino acids (NEAA) (Invitrogen) and […] Recombinant Human TNF-α (Peprotech, USA) and maintained at 37°C in a humidified atmosphere of 5% CO2.
(§6) Cell viability was evaluated by the tetrazolium dye (MTS) Short-Term Cytotoxicity Assay. […] Following 72 h of compound exposure, cell viability was evaluated using the CellTiter 96 AQueous Non-Radioactive Cell Proliferation Assay (Promega, Madison, WI, USA), using 3-(4,5-dimethylthiazol-2-yl)-5-(3-carboxymethoxyphenyl)-2-(4-sulfophenyl)-2H-tetrazolium, inner salt (MTS) as previously described [35]. Cell viability data were expressed as mean ±SD from at least three independent experiments. IC50 and IC65 values were determined using GaphPad Prism v.5.00 (GraphPad Software). In selected experiments, cell viability was also assessed by trypan blue exclusion assay, and general cell death by LDH activity from cell culture supernatants.

The subject of series [5] is CCD18co cells. Kind of series: MTS short-term cytotoxicity assay (72 h), CCD18co. The series is classed as cell-based. The following applies: Homo sapiens, CCD-18Co, MTS, standard errors ≤ 0.1, read-out: CCD18co IC50. On the procedure: as §4, §5, §6
For series [6], the system named is HCT116 cells. Kind of series: MTS short-term cytotoxicity assay (72 h), HCT116. The series is classed as cell-based, human. The settings on record: for HCT116 IC65 / IC50: 72 h, MTS, standard errors ≤ 0.1; for Selective index (SI) = IC50 CCD-18co / IC50 HCT116: CCD18co vs HCT116; for IC50: Homo sapiens, HCT-116, read-out: HCT116 IC50. On the procedure: as §4, §5, §6

In series [7] the test system is SW620 cells. Kind of series: MTS short-term cytotoxicity assay (72 h), SW620. The series is classed as cell-based. The following applies: for SW620 IC65 / IC50: 72 h, MTS, standard errors ≤ 0.1; for IC50: Homo sapiens, SW-620, read-out: SW620 IC50. On the procedure: as §4, §5, §6
Series [8] relates to KRAS mRNA. Kind of series: KRAS mRNA steady-state levels by Taqman Real-time RT-PCR. The following applies: IC50 concentrations. (Quantitative PCR measures a nucleic acid by following its amplification.)
The subject of series [9] is HCT116 cells. Further details: method as in PMID 23960016. The settings on record: HCT116 vs primary rat hepatocytes; cited from earlier work.

What is called melting point is the temperature, or range, at which the solid turns liquid. Take `O=C(OCCN1CCCC1)c1ccc2c(c1)c1nc3ccccc3c(OCCN3CCCC3)c1n2CCN1CCCC1` (as salt: salt) [1b]: the melting point lay within 159 to 164 °C.

The compound `O=C(OCCN1CCOCC1)c1ccc2c(c1)c1nc3ccccc3c(OCCN3CCOCC3)c1n2CCN1CCOCC1` (as salt: salt) [1c] had a melting point of 141 to 145 °C.

`O=C(OCCCN1CCCCC1)c1ccc2c(c1)c1nc3ccccc3c(OCCCN3CCCCC3)c1n2CCCN1CCCCC1` (as salt: salt) [1d] displayed a melting point of 124 to 128 °C.

For the compound `O=C(OCCN1CCCC1)c1ccc2c(c1)c1nc3ccccc3c(OCCN3CCCC3)c1n2CCN1CCCC1` [1b], in series [1], the “ΔTm (°C) T-Loop 1 μM” value is less than 2 °C and the “ΔTm (°C) T-Loop 2 μM” value was found to be 6 °C. In addition, in [2], the “ΔTm (°C) HSP90A 1 μM” value was 12 °C and the “ΔTm (°C) HSP90A 2 μM” value worked out at 16 °C. Also, in series [3], the “ΔTm (°C) KRAS21 1 μM” value came out at 5 °C and the “ΔTm (°C) KRAS21 2 μM” value worked out at 10 °C.

Consider `O=C(OCCN1CCOCC1)c1ccc2c(c1)c1nc3ccccc3c(OCCN3CCOCC3)c1n2CCN1CCOCC1` [1c], for which, in series [1], the “ΔTm (°C) T-Loop 1 μM” value was less than 2 °C and the “ΔTm (°C) T-Loop 2 μM” value is less than 2 °C. Moreover, in series [2], the “ΔTm (°C) HSP90A 1 μM” value was 4 °C and the “ΔTm (°C) HSP90A 2 μM” value worked out at 7 °C. Also, in series [3], the “ΔTm (°C) KRAS21 1 μM” value was less than 2 °C and the “ΔTm (°C) KRAS21 2 μM” value is less than 2 °C.

Turning to `O=C(OCCCN1CCCCC1)c1ccc2c(c1)c1nc3ccccc3c(OCCCN3CCCCC3)c1n2CCCN1CCCCC1` [1d], in series [1], the “ΔTm (°C) T-Loop 1 μM” value was less than 2 °C and the “ΔTm (°C) T-Loop 2 μM” value came to 10 °C. In series [2], the “ΔTm (°C) HSP90A 1 μM” value came to 15 °C and the “ΔTm (°C) HSP90A 2 μM” value is 21 °C. In series [3], the “ΔTm (°C) KRAS21 1 μM” value is 9 °C and the “ΔTm (°C) KRAS21 2 μM” value was found to be 18 °C.

Usually IC50 stands for the point on the concentration scale where inhibition reaches its midpoint. Turning to `CCN(CC)CCOC(=O)c1ccc2c(c1)c1c(c(=O)c3ccccc3n1CCN(CC)CC)n2CCN(CC)CC` [2a], in series [4], the IC50 was 670 nM and the “HEK293T IC65” value was found to be 940 nM. Also, in [1], the “ΔTm (°C) T-Loop 1 μM” value is less than 2 °C and the “ΔTm (°C) T-Loop 2 μM” value was less than 2 °C. In series [2], the “ΔTm (°C) HSP90A 1 μM” value came out at 11 °C and the “ΔTm (°C) HSP90A 2 μM” value is 15 °C. Moreover, in [3], the “ΔTm (°C) KRAS21 1 μM” value is 4 °C and the “ΔTm (°C) KRAS21 2 μM” value was 7 °C. Also, the IC50 in series [5] is 5410 nM. Also, in series [6], the “HCT116 IC65” value is 1600 nM, the “Selective index (SI) = IC50 CCD-18co / IC50 HCT116” value was 5.46 and the IC50 turned out to be 990 nM. In series [7], the “SW620 IC65” value amounted to 1440 nM and the IC50 came to 670 nM. Besides, the “down-regulation of KRAS transcription (mRNA)” value (shortened to “down-regulation”) in [8] (HCT116, 72 h) is listed as approximately 40%. Besides, the “down-regulation” value in [8] (SW620, 72 h) is “not significantly so”. Also, in series [9], the “Selective growth inhibition of KRAS mutant HCT116 cells compared to primary rat hepatocytes” value is on record as 100 fold.

`O=C(OCCN1CCCC1)c1ccc2c(c1)c1c(c(=O)c3ccccc3n1CCN1CCCC1)n2CCN1CCCC1` [2b]: in [1], the “ΔTm (°C) T-Loop 1 μM” value is 3 °C and the “ΔTm (°C) T-Loop 2 μM” value turned out to be 6 °C. In [2], the “ΔTm (°C) HSP90A 1 μM” value is 14 °C and the “ΔTm (°C) HSP90A 2 μM” value was 19 °C. Further, in series [3], the “ΔTm (°C) KRAS21 1 μM” value stood at 10 °C and the “ΔTm (°C) KRAS21 2 μM” value stood at 16 °C.

Regarding `O=C(OCCCN1CCCCC1)c1ccc2c(c1)c1c(c(=O)c3ccccc3n1CCCN1CCCCC1)n2CCCN1CCCCC1` [2d], in series [4], the IC50 amounted to 700 nM and the “HEK293T IC65” value was 1120 nM. Moreover, in [1], the “ΔTm (°C) T-Loop 1 μM” value was determined as 4 °C and the “ΔTm (°C) T-Loop 2 μM” value turned out to be 12 °C. Moreover, in series [2], the “ΔTm (°C) HSP90A 1 μM” value was 19 °C and the “ΔTm (°C) HSP90A 2 μM” value stood at 25 °C. Besides, in series [3], the “ΔTm (°C) KRAS21 1 μM” value turned out to be 13 °C and the “ΔTm (°C) KRAS21 2 μM” value came out at 22 °C. In addition, in series [5], the IC50 was determined as 2180 nM. Also, in series [6], the “HCT116 IC65” value was found to be 580 nM, the “Selective index (SI) = IC50 CCD-18co / IC50 HCT116” value was 5.45 and the IC50 was 400 nM. For the same compound, in series [7], the “SW620 IC65” value was 450 nM and the IC50 is 280 nM. In addition, in [7] (SW620 cells), the “IC50 fold lower than that of 5-FU” value was approximately 20 fold. In addition, the “down-regulation” value in [8] (HCT116, 72 h) is approximately 40%. The “down-regulation” value in series [8] (SW620, 72 h) is “not significantly so”.
